Test results as given in ChEMBL document CHEMBL5550206, “Identification of 6-Fluorine-Substituted Coumarin Analogues as POLRMT Inhibitors with High Potency and Safety for Treatment of Pancreatic Cancer” (J Med Chem, 2024).
Active and inactive are the calls of the source. No cut-off for these calls is given here.

Assays:
[1] = test system: MIA PaCa-2; test: Induction of cell arrest in human MIA PaCa-2 cells assessed as accumulation of cells at G2 phase at 100 nM measured after 96 hrs by PI staining based flow cytometry (reference value: 11.2%); type: functional
[2] = Toxicity in BALB/c mouse xenografted with human MIA PaCa-2 cells assessed as pathological change in spleen at 25 to 100 mg/kg, iv once daily for 25 consecutive day after 2 weeks of cells injection by H and E staining based optical microscopic analysis; type: organism-based; details: in vivo, 336 h, dose 25-100 mg/kg
[3] = test system: MIA PaCa-2; test: Induction of cell arrest in human MIA PaCa-2 cells assessed as accumulation of cells at S phase at 25 nM measured after 96 hrs by PI staining based flow cytometry (reference value: 16.8%); type: functional
[4] = test system: MIA PaCa-2; test: Reduction in spare oxygen consumption rate (OCR) in human MIA PaCa-2 cells incubated for 168 hrs; type: functional, cell-based; details: dose 1-200 nM
[5] = test system: MIA PaCa-2; test: Effect on extracellular acidification rate (ECAR) in human MIA PaCa-2 cells at 1 to 200 nM incubated for 168 hrs; type: functional, cell-based; details: dose 1-200 nM
[6] = test system: MIA PaCa-2; test: Reduction of protein complexes of mitochondrial electron transport chain in human MIA PaCa-2 cells reduction in NDUFB8 protein level by Western blot analysis; type: functional, cell-based; details: dose 0.001-5 µM
[7] = test system: MIA PaCa-2; test: Induction of cell arrest in human MIA PaCa-2 cells assessed as viable cells at 50 nM measured after 4 days by Annexin V-FITC and propidium iodide (PI) staining based assay (reference value: 94.9%); type: functional; details: MIA PaCa-2, 96 h, time 4 day, read-out: Activity
[8] = test system: MIA PaCa-2; test: Induction of cell arrest in human MIA PaCa-2 cells assessed as necrotic cells at 500 nM measured after 4 days by Annexin V-FITC and propidium iodide (PI) staining based assay (reference value: 0.82%); type: functional; details: time 4 day
[9] = test system: MIA PaCa-2; test: In vivo antitumor activity against human MIA PaCa-2 cells xenografted in BALB/c mouse assessed as reduction in tumor weight at 25 mg/kg, iv once daily for 25 consecutive day after 2 weeks of cells injection relative to control; type: functional; details: MIA PaCa-2, 600 h, time 25 day
[10] = Toxicity in BALB/c mouse xenografted with human MIA PaCa-2 cells assessed as pathological change in kidney at 25 to 100 mg/kg, iv once daily for 25 consecutive day after 2 weeks of cells injection by H and E staining based optical microscopic analysis; type: organism-based; details: in vivo, 336 h, dose 25-100 mg/kg
[11] = test system: MIA PaCa-2; test: Induction of cell arrest in human MIA PaCa-2 cells assessed as accumulation of cells at G1 phase at 100 nM measured after 96 hrs by PI staining based flow cytometry (reference value: 64%); type: functional
[12] = test system: MIA PaCa-2; test: Induction of cell arrest in human MIA PaCa-2 cells assessed as late apoptotic cells at 200 nM measured after 4 days by Annexin V-FITC and propidium iodide (PI) staining based assay (reference value: 3.23%); type: functional; details: time 4 day
[13] = test system: MIA PaCa-2; test: Effect on mitochondrial membrane potential loss in human MIA PaCa-2 cells assessed as change in membrane potential at 0.1 to 5 uM incubated for 96 hrs by JC-1 staining based flow cytometry analysis; type: functional, cell-based; details: dose 0.1-5 µM
[14] = test system: MIA PaCa-2; test: Reduction in basal oxygen consumption rate (OCR) in human MIA PaCa-2 cells incubated for 168 hrs; type: functional, cell-based; details: dose 1-200 nM
[15] = molecular target: DNA-directed RNA polymerase, mitochondrial (Homo sapiens) (UniProt O00411); test: Thermal stabilization of human POLRMT in human MIA PaCa-2 cells assessed as melting temperature at 100 uM measured after 30 mins incubation by Wester blot analysis (reference value: 42 degreeC); type: cell-based
DNA-directed RNA polymerase, mitochondrial (Homo sapiens), sequence (O00411 whole entry): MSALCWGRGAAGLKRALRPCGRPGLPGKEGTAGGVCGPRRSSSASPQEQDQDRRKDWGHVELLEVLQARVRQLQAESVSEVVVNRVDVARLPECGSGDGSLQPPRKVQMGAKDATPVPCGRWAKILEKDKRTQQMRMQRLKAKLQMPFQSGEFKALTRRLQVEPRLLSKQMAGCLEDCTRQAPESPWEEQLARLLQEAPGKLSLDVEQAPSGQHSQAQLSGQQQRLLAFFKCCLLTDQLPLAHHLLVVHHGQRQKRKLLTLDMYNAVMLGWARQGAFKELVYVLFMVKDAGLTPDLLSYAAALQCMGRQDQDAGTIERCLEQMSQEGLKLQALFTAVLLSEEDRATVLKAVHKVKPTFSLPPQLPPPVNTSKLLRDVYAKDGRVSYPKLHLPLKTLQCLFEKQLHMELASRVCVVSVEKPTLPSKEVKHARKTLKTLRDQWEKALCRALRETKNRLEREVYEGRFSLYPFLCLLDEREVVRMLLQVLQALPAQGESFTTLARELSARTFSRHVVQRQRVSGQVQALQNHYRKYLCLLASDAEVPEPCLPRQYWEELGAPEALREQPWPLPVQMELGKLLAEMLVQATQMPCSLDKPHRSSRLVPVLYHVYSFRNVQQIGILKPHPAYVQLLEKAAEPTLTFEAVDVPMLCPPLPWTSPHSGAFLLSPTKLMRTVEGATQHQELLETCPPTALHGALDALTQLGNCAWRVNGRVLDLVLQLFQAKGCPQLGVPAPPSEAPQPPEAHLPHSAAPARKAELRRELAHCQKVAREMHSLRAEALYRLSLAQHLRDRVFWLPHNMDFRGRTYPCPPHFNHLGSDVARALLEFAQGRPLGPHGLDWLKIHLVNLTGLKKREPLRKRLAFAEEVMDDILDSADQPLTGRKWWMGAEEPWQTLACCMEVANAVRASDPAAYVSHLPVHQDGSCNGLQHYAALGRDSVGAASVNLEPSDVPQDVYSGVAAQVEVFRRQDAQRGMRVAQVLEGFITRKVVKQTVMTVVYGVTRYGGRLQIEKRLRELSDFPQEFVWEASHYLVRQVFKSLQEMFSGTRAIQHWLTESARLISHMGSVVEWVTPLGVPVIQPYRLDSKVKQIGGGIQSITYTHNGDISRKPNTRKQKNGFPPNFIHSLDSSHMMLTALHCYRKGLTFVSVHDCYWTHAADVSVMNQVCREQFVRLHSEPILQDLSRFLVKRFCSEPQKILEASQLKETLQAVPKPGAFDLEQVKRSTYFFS

[16] = test system: MIA PaCa-2; test: Induction of cell arrest in human MIA PaCa-2 cells assessed as accumulation of cells at G2 phase at 500 nM measured after 96 hrs by PI staining based flow cytometry (reference value: 11.2%); type: functional
[17] = test system: MIA PaCa-2; test: Induction of cell arrest in human MIA PaCa-2 cells assessed as accumulation of cells at S phase at 100 nM measured after 96 hrs by PI staining based flow cytometry (reference value: 16.8%); type: functional
[18] = test system: MIA PaCa-2; test: Reduction in number of mitochondria in human MIA PaCa-2 cells measured after 96 hrs by Mito-Tracker Green and DAPI staining based assay; type: functional, cell-based; details: dose 10-1000 nM
[19] = test system: MIA PaCa-2; test: Inhibition of RNA pol III in human MIA PaCa-2 cells assessed as effect on 5S RNA level at 0.1 to 1 uM measured after 12 hrs by RT-qPCR analysis; type: cell-based; details: dose 0.1-1 µM
[20] = test system: MIA PaCa-2; test: Induction of cell arrest in human MIA PaCa-2 cells assessed as necrotic cells at 25 nM measured after 4 days by Annexin V-FITC and propidium iodide (PI) staining based assay (reference value: 0.82%); type: functional; details: time 4 day
[21] = test system: MIA PaCa-2; test: Induction of cell arrest in human MIA PaCa-2 cells assessed as accumulation of cells at S phase at 500 nM measured after 96 hrs by PI staining based flow cytometry (reference value: 16.8%); type: functional
[22] = Toxicity in BALB/c mouse xenografted with human MIA PaCa-2 cells assessed as pathological change in liver at 25 to 100 mg/kg, iv once daily for 25 consecutive day after 2 weeks of cells injection by H and E staining based optical microscopic analysis; type: organism-based; details: in vivo, 336 h, dose 25-100 mg/kg
[23] = test system: MIA PaCa-2; test: Induction of cell arrest in human MIA PaCa-2 cells assessed as necrotic cells at 200 nM measured after 4 days by Annexin V-FITC and propidium iodide (PI) staining based assay (reference value: 0.82%); type: functional; details: time 4 day
[24] = test system: MIA PaCa-2; test: Induction of cell arrest in human MIA PaCa-2 cells assessed as accumulation of cells at S phase at 50 nM measured after 96 hrs by PI staining based flow cytometry (reference value: 16.8%); type: functional
[25] = test system: MIA PaCa-2; test: Reduction of protein complexes of mitochondrial electron transport chain in human MIA PaCa-2 cells reduction in UQCRC2 protein level by Western blot analysis; type: functional, cell-based; details: dose 0.001-5 µM
[26] = test system: MIA PaCa-2; test: Induction of senescence in human MIA PaCa-2 cells at 50 to 1000 nM measured after 96 hrs by beta-galactosidase staining based assay; type: functional, cell-based; details: dose 50-1000 nM
[27] = test system: MIA PaCa-2; test: Induction of cell arrest in human MIA PaCa-2 cells assessed as accumulation of cells at G1 phase at 200 nM measured after 96 hrs by PI staining based flow cytometry (reference value: 64%); type: functional
[28] = test system: MIA PaCa-2; test: Induction of cell arrest in human MIA PaCa-2 cells assessed as accumulation of cells at G1 phase at 50 nM measured after 96 hrs by PI staining based flow cytometry (reference value: 64%); type: functional
[29] = test system: MIA PaCa-2; test: Induction of cell arrest in human MIA PaCa-2 cells assessed as late apoptotic cells at 25 nM measured after 4 days by Annexin V-FITC and propidium iodide (PI) staining based assay (reference value: 3.23%); type: functional; details: time 4 day
[30] = Toxicity in BALB/c mouse xenografted with human MIA PaCa-2 cells assessed as pathological change in heart at 25 to 100 mg/kg, iv once daily for 25 consecutive day after 2 weeks of cells injection by H and E staining based optical microscopic analysis; type: organism-based; details: in vivo, 336 h, dose 25-100 mg/kg
[31] = test system: MIA PaCa-2; test: Induction of cell arrest in human MIA PaCa-2 cells assessed as accumulation of cells at S phase at 200 nM measured after 96 hrs by PI staining based flow cytometry (reference value: 16.8%); type: functional

CCN(CC)C(=O)[C@@H](C)Oc1cc2oc(=O)cc(-c3ccccc3C)c2cc1F
Activity [1]: 11.3% | Activity [2]: Non-Toxic | Activity [3]: 14.2% | Activity [4]: Dose-Dependent Effect | Activity [5]: inactive | Activity [6]: Dose-Dependent Effect | viability at 0.05 µM [7]: 94.1% | Activity [8]: 1.28% | inhibition in vivo at 25 mg/kg [9]: 45.2% | Activity [10]: Non-Toxic | Activity [11]: 63.6% | Activity [12]: 3.94% | Activity [13]: inactive | Activity [14]: Dose-Dependent Effect | Tm [15]: 57 °C | Activity [16]: 11.6% | Activity [17]: 16.7% | Activity [18]: Dose-Dependent Effect | inhibition [19]: inactive | Activity [20]: 0.82% | Activity [21]: 17.6% | Activity [22]: Non-Toxic | Activity [23]: 0.83% | Activity [24]: 15.4% | Activity [25]: Dose-Dependent Effect | Activity [26]: inactive | Activity [27]: 62.4% | Activity [28]: 67.1% | Activity [29]: 3.32% | Activity [30]: Non-Toxic | Activity [31]: 17%
